Measured values as given in ChEMBL document CHEMBL1145510, “SCO-1, a novel plasmid-mediated class A beta-lactamase with carbenicillinase characteristics from Escherichia coli” (Antimicrob Agents Chemother, 2007).
Values after ≈ are worked out from the molar mass of the structure shown.

What was measured:
[1] = Inhibition of Escherichia coli K12 CARB1
[2] = target: T1, Beta-lactamase SCO-1 (Escherichia coli) (UniProt A1E3K9); test: Activity of Escherichia coli beta-lactamase SCO1 relative to penicillin G
T1 sequence (whole entry): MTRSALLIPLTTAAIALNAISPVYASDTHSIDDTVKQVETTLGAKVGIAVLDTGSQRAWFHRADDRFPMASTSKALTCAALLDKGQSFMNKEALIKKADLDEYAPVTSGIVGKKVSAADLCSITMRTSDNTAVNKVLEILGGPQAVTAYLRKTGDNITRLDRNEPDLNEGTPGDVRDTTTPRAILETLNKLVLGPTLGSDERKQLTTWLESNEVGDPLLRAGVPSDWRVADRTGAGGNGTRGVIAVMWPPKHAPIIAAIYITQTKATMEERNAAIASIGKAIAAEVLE

[3] = target: Beta-lactamase TEM (Escherichia coli) (UniProt P62593); test: Activity of Escherichia coli K12 beta-lactamase TEM1 relative to penicillin G
Beta-lactamase TEM (Escherichia coli), sequence (P62593 whole entry): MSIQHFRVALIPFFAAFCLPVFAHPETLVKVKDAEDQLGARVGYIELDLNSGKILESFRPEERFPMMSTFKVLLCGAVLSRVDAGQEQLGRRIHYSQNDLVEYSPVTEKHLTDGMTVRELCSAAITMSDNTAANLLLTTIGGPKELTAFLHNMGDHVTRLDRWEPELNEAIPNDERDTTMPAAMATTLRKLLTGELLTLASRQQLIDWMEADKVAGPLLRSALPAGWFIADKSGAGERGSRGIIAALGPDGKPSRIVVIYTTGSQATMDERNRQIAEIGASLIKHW

Escherichia coli [4] = test: Activity of Escherichia coli K12 beta-lactamase CARB1 relative to penicillin G
Escherichia coli [5] = test: Antibacterial activity against Escherichia coli 3521r carrying pR352 encoding SCO1 by agar dilution technique; type: functional
Escherichia coli [6] = test: Antibacterial activity against Escherichia coli DH5-alpha carrying pSCO1 encoding SCO1 by agar dilution technique; type: functional; details: DH5alpha
Escherichia coli [7] = test: Antibacterial activity against Escherichia coli K12 carrying pR3521 encoding SCO1 by agar dilution technique; type: functional
Escherichia coli [8] = test: Antibacterial activity against Escherichia coli DH5-alpha by agar dilution technique; type: functional; details: DH5alpha
[9] = target: Beta-lactamase TEM (Escherichia coli) (UniProt P62593); test: Inhibition of Escherichia coli TEM1

Compound | IC50 [1] [nM] | Activity [2] | Activity [3] | Activity (Escherichia coli [4]) | MIC (Escherichia coli [5]) [µg/mL] | MIC (Escherichia coli [6]) [µg/mL] | MIC (Escherichia coli [7]) [µg/mL] | MIC (Escherichia coli [8]) [µg/mL] | Activity [9] [µM]
CC1(C)C(C(=O)O)N2C(=O)C[C@H]2S1(=O)=O (single isomer, unassigned) [SULBACTAM] | 5000 | – | – | – | – | – | – | – | –
O=C(Cc1cccs1)N[C@@H]1C(=O)N2C(C(=O)[O-])=C(C[n+]3ccccc3)CS[C@H]12 | – | 21 | 154 | 15 | – | – | – | – | –
CO/N=C(\C(=O)N[C@@H]1C(=O)N2C(C(=O)O)=C(COC(N)=O)CS[C@H]12)c1ccco1 [CEFUROXIME] | – | – | – | – | 32 (≈ 75.4 µM) | 1 (≈ 2.36 µM) | 32 (≈ 75.4 µM) | 1 (≈ 2.36 µM) | –
CC(=O)OCC1=C(C(=O)O)N2C(=O)[C@@H](NC(=O)Cc3cccs3)[C@H]2SC1 [CEPHALOTHIN] | – | 3 | 27 | 6 | ≥ 256 | 8 (≈ 20.2 µM) | ≥ 256 | 2 (≈ 5.04 µM) | –
CC1(C)S[C@@H]2[C@H](NC(=O)[C@H](N)c3ccc(O)cc3)C(=O)N2[C@H]1C(=O)O [AMOXICILLIN] | – | – | 108 | 100 | ≥ 256 | ≥ 256 | ≥ 256 | 4 (≈ 10.9 µM) | –
CC1(C)S[C@@H]2[C@H](NC(=O)[C@H](N)c3ccccc3)C(=O)N2[C@H]1C(=O)O | – | 84 | – | – | – | – | – | – | –
CC1(C)S[C@@H]2[C@H](NC(=O)[C@H](C(=O)O)c3ccsc3)C(=O)N2[C@H]1C(=O)O [TICARCILLIN] | – | – | – | – | ≥ 256 | ≥ 256 | ≥ 256 | 2 (≈ 5.2 µM) | –
O=C(O)[C@H]1/C(=C/CO)O[C@@H]2CC(=O)N21 [CLAVULANIC ACID] | 100 | – | – | – | – | – | – | – | 3
CC1(C)S[C@@H]2[C@H](NC(=O)C(C(=O)O)c3ccccc3)C(=O)N2[C@H]1C(=O)O (some centres undefined) [CARBENICILLIN] | – | 78 | 15 | 146 | 128 (≈ 338 µM) | 128 (≈ 338 µM) | 64 (≈ 169 µM) | 1 (≈ 2.64 µM) | –
CO/N=C(\C(=O)N[C@@H]1C(=O)N2C(C(=O)[O-])=C(C[N+]3(C)CCCC3)CS[C@H]12)c1csc(N)n1 | – | – | – | – | – | ≤ 0.12 | 0.25 (≈ 0.52 µM) | ≤ 0.12 | –
C[C@H]1[C@H](NC(=O)/C(=N\OC(C)(C)C(=O)O)c2csc(N)n2)C(=O)N1S(=O)(=O)O [AZTREONAM] | – | – | – | – | 1 (≈ 2.3 µM) | ≤ 0.12 | 1 (≈ 2.3 µM) | ≤ 0.12 | –
CCN1CCN(C(=O)N[C@@H](C(=O)N[C@@H]2C(=O)N3[C@@H]2SC(C)(C)[C@@H]3C(=O)O)c2ccccc2)C(=O)C1=O [PIPERACILLIN] | – | – | – | – | 128 (≈ 247 µM) | 32 (≈ 61.8 µM) | 64 (≈ 124 µM) | 2 (≈ 3.86 µM) | –
CO[C@@]1(NC(=O)Cc2cccs2)C(=O)N2C(C(=O)O)=C(COC(N)=O)CS[C@@H]21 [CEFOXITIN] | – | – | – | – | 8 (≈ 18.7 µM) | 2 (≈ 4.68 µM) | 8 (≈ 18.7 µM) | 2 (≈ 4.68 µM) | –
C[C@]1(Cn2ccnn2)[C@H](C(=O)O)N2C(=O)C[C@H]2S1(=O)=O [TAZOBACTAM] | 80 | – | – | – | – | – | – | – | –
Cc1onc(-c2ccccc2)c1C(=O)N[C@@H]1C(=O)N2[C@@H]1SC(C)(C)[C@@H]2C(=O)O | – | 4 | – | 12 | – | – | – | – | –
CO/N=C(\C(=O)N[C@@H]1C(=O)N2C(C(=O)O)=C(COC(C)=O)CS[C@H]12)c1csc(N)n1 [CEFOTAXIME] | – | < 1 | < 1 | < 1 | 8 (≈ 17.6 µM) | ≤ 0.12 | 4 (≈ 8.78 µM) | ≤ 0.12 | –
C[C@@H](O)[C@H]1C(=O)N2C(C(=O)O)=C(SCCNC=N)C[C@H]12 [IMIPENEM ANHYDROUS] | – | – | – | – | – | ≤ 0.12 | – | ≤ 0.12 | –
CC(C)(O/N=C(\C(=O)N[C@@H]1C(=O)N2C(C(=O)[O-])=C(C[n+]3ccccc3)CS[C@H]12)c1csc(N)n1)C(=O)O [CEFTAZIDIME] | – | < 1 | < 1 | < 1 | 32 (≈ 58.5 µM) | ≤ 0.12 | 32 (≈ 58.5 µM) | ≤ 0.12 | –
